Measured values published in publication PMC9236248, “Ucl fimbriae regulation and glycan receptor specificity contribute to gut colonisation by extra-intestinal pathogenic Escherichia coli” (PLoS Pathogens, 2022).
“And” between values parts separate entries of the source, which are not always exact repeats. Equal values may be shown once.

How the values were obtained:
[1] = target: UcaD^LD (Proteus mirabilis, UniProt B4EV65); test: Soaking of pre-formed UcaD^LD crystals with monosaccharides (X-ray crystallography); format: binding, P. mirabilis PM54; conditions: 0.1-0.2 M monosaccharide, 48 hours soak
Description: Crystals were produced by the hanging drop method. Structural analyses were carried out using DALI [22], and PyMOL (http://www.pymol.org). Figures were generated using PyMOL. The UclD^LD structure was refined to final Rwork/Rfree values of 24.8%/30.6%; the UcaD^LD structure was refined to final Rwork/Rfree values of 16.9%/19.2%, respectively (Table A in S1 Text). For UcaD^LD:monosaccharide complexes, coordinates and structure factors have been deposited in the PDB with IDs 7MZQ (Fuc complex), 7MZR (Glc complex), and 7MZS (Gal complex).
157 flash-cooling in liquid nitrogen. X-ray diffraction data were collected from a single crystal at the
158 Australian Synchrotron MX2 beamline, using a wavelength of 0.9537 Å. Data collection was
159 performed using Blu-Ice software, indexed and integrated using MOSFLM and scaled with
160 AIMLESS within the CCP4 suite. The structure was solved by molecular replacement using
161 PHASER [23] and UclDLD as the template. The model was refined using Phenix and structure
The structure was refined to final Rwork/Rfree values
163 of 16.9 %/19.2 %, respectively (Table A in S1 Text). The final UcaDLD model contains residues 21-
165 disordered or flexible conformation in the crystals. Coordinates and structure factors have been
166 deposited in the PDB with ID 7MZO.
167 UcaDLD:monosaccharide complexes: Pre-formed UcaDLD and UclDLD crystals were soaked with
168 0.1-0.2 M of the monosaccharides Fuc, Glc, Gal, GlcNAc, GalNAc or Neu5Ac for 48 hours in the
169 crystallisation solution (0.1 M sodium citrate buffer pH 4.5-5.5, 2-3 M NaCl). The crystals were
170 cryoprotected in Paratone-N and flash-cooled at 100 K. X-ray diffraction data were collected from
171 single crystals on the MX2 beamline at the Australian Synchrotron, using a wavelength of 0.9537 Å.
172 The data-sets was processed using either MOSFLM (Gal complex), or XDS (Fuc and Glc complexes)
173 [27] and scaled using AIMLESS in the CCP4 suite. The structures were solved by molecular
174 replacement using PHASER [23] and ligand-free UcaDLD as the template. The models were refined
175 using Phenix, and structure validations were performed using MolProbity. Coordinates and
176 structure factors have been deposited in the PDB with IDs 7MZQ (Fuc complex), 7MZR (Glc
177 complex), and 7MZS (Gal complex).

[2] = target: T1, UclD^LD (Escherichia coli, UniProt Q8GA71); test: SPR analysis of glycans on immobilized UclD lectin domain; design: species or system E. coli strain F11; conditions: single cycle kinetics, read-out: KD, binding affinity to UclD^LD determined by SPR
T1 sequence (Q8GA71 21-221): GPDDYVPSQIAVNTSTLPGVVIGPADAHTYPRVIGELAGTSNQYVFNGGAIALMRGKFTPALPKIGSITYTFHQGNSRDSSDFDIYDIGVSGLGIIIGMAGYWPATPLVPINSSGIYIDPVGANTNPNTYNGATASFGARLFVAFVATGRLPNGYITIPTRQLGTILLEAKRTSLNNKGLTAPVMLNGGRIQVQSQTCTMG
Description: 126 described with minor modifications. Briefly, UclD and UcaD were immobilized onto flow cells
127 of a CM5 sensor chip using amine coupling at 20 µg/mL in 10 mM sodium acetate pH 4.0 and at a
128 flow rate of 5 µL/min for 10 minutes. Glycans were chosen based on positive glycan array results for
129 each of the proteins with each glycan run across a dilution range starting at a maximum concentration
130 of 100 µM and minimum concentrations tested being 1.6 nM using single cycle kinetics. Results were
131 analysed using the Biacore T200 evaluation software.
132 Crystallization and crystal structure determination.
133 UclDLD: UclDLD crystals were produced using the hanging drop method, with drops containing 1 µL
134 of protein (10 mg/mL) and 1 µL of well solution (20-25% w/v PEG 3350, 0.1 M Bis-Tris propane
135 pH 6.5, 0.2 M sodium iodide). The crystals appeared within 1-5 days. The crystals were cryoprotected
136 in glycerol (80% well solution and 20% (v/v) glycerol) before flash-cooling in liquid nitrogen. X-ray
137 diffraction data were collected from a single crystal at the Australian Synchrotron MX1 beamline,
138 using a wavelength of 0.9537 Å. Data collection was performed using Blu -Ice software, indexed
139 and integrated using MOSFLM and scaled with AIMLESS within the CCP4 suite. Molecular […]
142 we determined the UclDLD structure by SAD phasing using the CRANK2 [19] pipeline of the CCP4 […]

[3] = tested on: UclD; conditions: galactose at 1 mM alone
[4] = target: T2, OxyR-6xHis (UniProt P0ACQ4); test: EMSA
T2 sequence: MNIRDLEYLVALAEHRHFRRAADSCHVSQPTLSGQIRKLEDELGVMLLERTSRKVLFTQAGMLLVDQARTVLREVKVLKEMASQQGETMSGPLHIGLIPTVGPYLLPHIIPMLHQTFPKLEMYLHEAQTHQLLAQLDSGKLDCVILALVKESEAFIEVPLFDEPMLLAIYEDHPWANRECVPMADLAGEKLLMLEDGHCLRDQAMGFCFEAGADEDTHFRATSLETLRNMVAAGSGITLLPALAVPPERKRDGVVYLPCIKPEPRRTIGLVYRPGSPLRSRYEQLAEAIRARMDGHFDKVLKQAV

[5] = target: T1, UclD^LD; test: Glycan array analysis (358 glycan structures), UclD; conditions: yes/no binding

Chain of UcaD^LD (B4EV65 entry or part of it): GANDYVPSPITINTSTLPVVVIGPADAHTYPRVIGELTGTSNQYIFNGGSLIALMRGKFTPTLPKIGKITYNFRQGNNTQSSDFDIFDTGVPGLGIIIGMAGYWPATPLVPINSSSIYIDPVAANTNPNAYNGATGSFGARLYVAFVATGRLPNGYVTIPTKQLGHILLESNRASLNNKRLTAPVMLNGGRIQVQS

| Molecule | Monosaccharide electron density / binding in soaked UcaD^LD crystals [1] | also measured |
| --- | --- | --- |
| C[C@H](O)[C@@H](O)[C@@H](O)[C@H](O)C=O [Fuc, fucose] | Clear monosaccharide electron density was observed | – |
| OC[C@H]1OC(O)[C@H](O)[C@@H](O)[C@@H]1O (some centres unmarked) [Glc, glucose] | Clear monosaccharide electron density was observed | – |
| CC(=O)N[C@@H]1[C@@H](O)[C@H](O)[C@@H](CO)O[C@H]1O [GlcNAc, N-acetylglucosamine] | not | – |
| CC(=O)N[C@H]1[C@H]([C@H](O)[C@H](O)CO)OC(O)(C(=O)O)C[C@@H]1O (some centres unmarked) [Neu5Ac, N-acetylneuraminic acid] | not | – |
| CC(=O)N[C@H]1[C@H]([C@H](O)[C@H](O)CO)O[C@@](O[C@H]2[C@@H](O)[C@@H](CO)O[C@@H](O[C@@H]([C@H](O[C@@H]3O[C@@H](C)[C@@H](O)[C@@H](O)[C@@H]3O)[C@H](C=O)NC(C)=O)[C@H](O)CO)[C@@H]2O)(C(=O)O)C[C@@H]1O [SialylLewis X, Neu5Acα2-3Galβ1-4(Fucα1–3)GlcNAc] | – | Kd [2]: 2520 nM |
| O=C[C@H](O)[C@@H](O)[C@@H](O)[C@H](O)CO [galactose] | Clear monosaccharide electron density was observed | Response 15 seconds after injection-B [3]: 6.3 RU and ~ 6.3 RU |
| CO[C@@H]1O[C@H](CO)[C@H](O)[C@H](O)[C@H]1O [β-methyl-galactose] | did not observe binding | – |
| AATAGGTCGCTCATTTCAGGGTAAAGCATATCTTTTGTCATTACCAACACAATAAATATGGTTTTTGATCGTTTTTCCCGATCGTTTTAGCAATCATGATATGTGCAATCTATCATACGCTGGTTATCGATCGGTAAAAACATTTTGAAAATGATTGTTTTGTTGGGGATGATTGCTGAACAAATGATCAATACTGGAATTAAACAGGAATTCATTTTATGAAAATAAAAGTTATAGCATTGGCTACATTTGTTTCTGCTG (double strand) [Cy3-Pucl-78T] | – | binding [4]: binds |
| asialo-GM1 | – | Binding to UclD^LD on glycan array [5]: did not identify interactions |
| lactosyl ceramide | – | Binding to UclD^LD on glycan array [5]: did not identify interactions |
